Patent US20150074835A1, “TRANSGENIC MOUSE EXPRESSING HUMAN LIPOPROTEIN (A) WITH DISABLED VITAMIN C GENE AND ITS USE AS A DISEASE TREATMENT MODEL” (priority 2013, published 2015)

System: Lpa+Gulo (−/−) mouse
Experiment: Lipoprotein-cholesterol, apo(a) particle and apoB-100 particle modulation (SPIFE / IFE of sera) under ascorbic acid supplementation
Assay type: in vivo
Details: 30 mg/L, 60 mg/L or 150 mg/L ascorbic acid in drinking water in addition to 500 ppm vitamin C in food (full supplementation); FIG. 6-8
Experimental: SPIFE Cholesterol Profiling (FIG. 2): The presence of complete Lp(a) lipoprotein particles in the Lp(a)+GULO(−/−) transgenic mouse serum was confirmed using the electrophoresis method with Helena (Beaumont, Tex.) SPIFE Cholesterol Profiling and Immunofixation electrophoresis (IFE). Immunofixation Electrophoresis (IFE) using the mouse sera was conducted on individual apo(a) (FIG. 3) containing particles and human apoB-100 containing particles (FIG. 4) as well, using human specific apo(a) and apoB-100 antibodies at Health Diagnostic Laboratory, Inc. (Richmond, Va.). The bands represent apo(a) and apoB-100 protein respectively in transgenic mouse and visualization of the same in serum derived from female and male mouse. Lipoprotein-cholesterol, Apo(a) particle, and ApoB-100 particle Modulation (FIG. 6, FIG. 7, and FIG. 8): The analysis was conducted on mouse sera from the Lpa+Gulo (−/−)mouse supplemented with either 30 mg/L, 60 mg/L or 150 mg/L of ascorbic acid provided in drinking water in addition to 500 ppm vitamin C provided in food (full supplementation). […] Sample order in FIGS. 6-8 correspond to the following key, with 30 vc referring to 30 mg/L Vitamin C group, 60 vc referring to 60 mg/L Vitamin C group, and sc referring to fully supplemented (150 mg/L Vitamin C+500 ppm Vitamin C in food) control group. The first three wells of each row were not used.

SMILES: O=C1O[C@H]([C@@H](O)CO)C(O)=C1O [ascorbate, ascorbic acid]
- modulation of the whole spectrum of lipoprotein cholesterols and/or lipoprotein particles in mouse sera: could be modulated
